# Patent EP1534672B1, “RETINOL DERIVATIVES, THEIR USE IN THE TREATMENT OF CANCER AND FOR POTENTIATING THE EFFICACY OF OTHER CYTOTOXIC AGENTS” (priority 2002, dated 2004)
# Like-named read-outs stand apart in the source and are kept apart here. Marks after values point to notes of the source that are not given here.
# How the values were obtained:
# [1] = test system: Human Breast Adenocarcinoma Cell Line MDA-MB-231; assay: Drug cytotoxicity testing (viable cell count, trypan blue exclusion, cell growth inhibition); assay type: cell-based; conditions: for cell growth inhibition reached on increase of the concentration, in (B): dilution in normal saline (B)
# Procedure: (§1) MDA-MB-231 cells were propagated in MEM culture medium with 2 mM L-glutamine, 10% heat-inactivated fetal bovine serum (FBS) and antibiotics. DU 145 cells were cultured in MEM culture medium containing 2 mM L-glutamine, 1 mM sodium pyruvate, 10% FBS and antibiotics. SKOV-3 cells were cultured in McCoy's 5A culture medium, supplemented with 1,5 mM L-glutamine, 10% FBS and antibiotics. A549 cells were cultured in Ham's F-12 culture medium with 1 mM L-glutamine, 10% FBS and antibiotics. All media and supplements were purchased from Sigma-Aldrich (St.Louis, MO, USA). Cell propagation of all lines was carried out in Falcon™ 25 cm^2 cultivation flasks (Becton Dickinson Labware).
# (§2) Drug cytotoxicity testing was carried out with using Falcon™ 96-well cultivation plates for adherent cells (Becton Dickinson Labware). These plates were seeded by cells either at 12 × 10^3 MDA-MB-231 cells/well, or at 12 × 10^3 DU 145 cells/well, or at 14 × 10^3 SKOV-3 cells/well, or at 10 × 10^3 A549 cells/well in a volume of 200 µL/well.
# (§3) The cell cultures in cultivation plates were allowed to adhere for 24 hour of incubation. On day 1 after cell seeding, 2 µL solutions of the drugs to be tested in medium with 5% FBS was added to the cultures. In the control cultures, 2 µL of medium with 5% FBS was added as solvent control. The cells were incubated for 2 consecutive days. At the end of the incubation period adherent cells were detached by trypsinization and the number of viable cells was counted using trypan blue exclusion test and a hemocytometer. All data were derived from an average of three determinations each in six replicates. The results were expressed as mean cell number ± SE and the differences between control and test series evaluated by means of Student's t-test. The drug cytotoxicity was evaluated based on the extent of cell growth inhibition. The cell growth inhibition of the tested drugs was calculated as follows: Cell growth inhibition,% = (Control-TestSeries)/(Control) × 100 [formula]
# In the case of comparative evaluation of cytotoxicity of the inventive compounds themselves and the formulation related to consecutive dilutions of their initial solutions before adding to the cultures, 2 µL solutions of the drugs to be tested in medium with 5% FBS, in normal saline and in saline with 2,3 mM CaCl2 were added to the cultures. In control cultures, 2 µL of medium with 5% FBS, normal saline and saline with 2,3 mM CaCl2 were added as solvent controls (negative controls). […] Therefore an average of negative controls was calculated. […] Therefore an average of positive controls was calculated (for each antibiotic).
# [2] = test system: Human Prostate Carcinoma Cell Line DU 145; assay: as above; assay type: cell-based; conditions: alone or in formulation at molar ratio 1:6
# Procedure: as §1, §2, §3
# [3] = rat, in vivo, ip; for mortality: 100 mg/kg
# Procedure: A single dose i.p. toxicity study in rats was carried out. […] The minimal lethal dose is thus above 100 mg/kg body weight for these compounds.
# [4] = cytotoxic drug 10^-8 mol/L, working solutions in medium with 5% FBS
# [5] = Homo sapiens, MDA-MB-231, compound alone 10^-7 mol/L, in A (saline with […] CaCl2), read-out: cell growth inhibition
# [6] = Homo sapiens, MDA-MB-231, compound alone 10^-7 mol/L, in B (normal saline), read-out: cell growth inhibition
# [7] = Homo sapiens, MDA-MB-231, compound alone 10^-7 mol/L, read-out: Cell growth inhibition in A compared to that in B was increased by
# [8] = Homo sapiens, MDA-MB-231, compound alone 10^-8 mol/L, in A (saline with […] CaCl2), read-out: cell growth inhibition
# [9] = Homo sapiens, MDA-MB-231, compound alone 10^-8 mol/L, in B (normal saline), read-out: cell growth inhibition
# [10] = Homo sapiens, MDA-MB-231, compound alone 10^-8 mol/L, read-out: Cell growth inhibition in A compared to that in B was increased by
# [11] = Homo sapiens, MDA-MB-231, compound alone 10^-9 mol/L, in A (saline with […] CaCl2), read-out: cell growth inhibition
# [12] = Homo sapiens, MDA-MB-231, compound alone 10^-9 mol/L, in B (normal saline), read-out: cell growth inhibition
# [13] = Homo sapiens, MDA-MB-231, compound alone 10^-9 mol/L, read-out: Cell growth inhibition in A compared to that in B was increased by
# [14] = compound alone 10^-7 mol/L, in B (normal saline)
# [15] = compound alone 10^-8 mol/L, in B (normal saline)
# [16] = compound alone 10^-9 mol/L, in B (normal saline)
# [17] = sodium salt, range 10^-9 to 10^-7 M
# [18] = Homo sapiens, MDA-MB-231, 48 h, compound alone, final concentration 10^-7 mol/L, working solutions in MEM with 5% FBS, two days, read-out: cell growth inhibition
# [19] = Homo sapiens, MDA-MB-231, 48 h, compound alone, final concentration 10^-8 mol/L, working solutions in MEM with 5% FBS, two days, read-out: cell growth inhibition
# [20] = Homo sapiens, MDA-MB-231, 48 h, compound alone, final concentration 10^-9 mol/L, working solutions in MEM with 5% FBS, two days, read-out: cell growth inhibition
# [21] = compound alone, final concentration 10^-7 mol/L, working solutions in MEM with 5% FBS, two days
# [22] = compound alone, final concentration 10^-8 mol/L, working solutions in MEM with 5% FBS, two days
# [23] = compound alone, final concentration 10^-9 mol/L, working solutions in MEM with 5% FBS, two days
compound,measurement,setting,value
"O=C1c2c(O)ccc(O)c2C(=O)c2c(NCCNCCO)ccc(NCCNCCO)c21 [Mitoxantrone, mitoxantrone]",IC50,"[1]; Homo sapiens, MDA-MB-231, as concentration of cytotoxic drug, alone or in formulation at molar ratio 1:6, medium with 5% FBS, calculated from three concentrations, read-out: IC50 mol/L (a)",5 nM
same,inhibition at 0.1 µM,"[1]; Homo sapiens, MDA-MB-231, cytotoxic drug 10^-7 mol/L (100 nM), alone or in formulation at molar ratio 1:6, working solutions in medium with 5% FBS, read-out: Cell Growth Inhibition, %",58.8%
same,inhibition at 0.01 µM,"[1]; Homo sapiens, MDA-MB-231, cytotoxic drug 10^-8 mol/L, alone or in formulation at molar ratio 1:6, working solutions in medium with 5% FBS, read-out: Cell Growth Inhibition, %",52.6%
same,inhibition at 0.001 µM,"[1]; Homo sapiens, MDA-MB-231, cytotoxic drug 10^-9 mol/L, alone or in formulation at molar ratio 1:6, working solutions in medium with 5% FBS, read-out: Cell Growth Inhibition, %",43.6%
same,"Tumor Cell Number, × 10^3","[1]; cytotoxic drug 10^-7 mol/L (100 nM), alone or in formulation at molar ratio 1:6, working solutions in medium with 5% FBS",22.5 ± 1.63 × 10^3
same,"Cell Growth Inhibition, %","[1]; cytotoxic drug 10^-7 mol/L (100 nM), alone or in formulation at molar ratio 1:6, working solutions in medium with 5% FBS, 0.1 µM",61.1* %
same,"Tumor Cell Number, × 10^3","[1]; cytotoxic drug 10^-7 mol/L (100 nM), alone or in formulation at molar ratio 1:6, working solutions in medium with 5% FBS, listed as mitoxantrone",22.9 ± 1.49 × 10^3
same,"Tumor Cell Number, × 10^3","[1]; cytotoxic drug 10^-8 mol/L, alone or in formulation at molar ratio 1:6, working solutions in medium with 5% FBS",27.4 ± 1.90 × 10^3
same,"Tumor Cell Number, × 10^3","[1]; cytotoxic drug 10^-9 mol/L, alone or in formulation at molar ratio 1:6, working solutions in medium with 5% FBS",32.6 ± 1.99 × 10^3
same,inhibition at 0.1 µM,"[2]; Homo sapiens, DU-145, cytotoxic drug 10^-7 mol/L (100 nM), working solutions in medium with 5% FBS",60.2%
same,inhibition at 0.01 µM,"[2]; Homo sapiens, DU-145, cytotoxic drug 10^-8 mol/L, working solutions in medium with 5% FBS",39.1%
same,inhibition at 0.001 µM,"[2]; Homo sapiens, DU-145, cytotoxic drug 10^-9 mol/L, working solutions in medium with 5% FBS",19.1%
same,IC50,"[2]; Homo sapiens, DU-145, as concentration of cytotoxic drug, medium with 5% FBS, calculated from three concentrations, read-out: IC50 mol/L (a)",32 nM
same,"Tumor Cell Number, × 10^3","[2]; cytotoxic drug 10^-7 mol/L (100 nM), working solutions in medium with 5% FBS",23.1 ± 1.34 × 10^3
same,"Cell Growth Inhibition, %","[2]; cytotoxic drug 10^-7 mol/L (100 nM), working solutions in medium with 5% FBS, 0.1 µM",59.8* %
same,"Tumor Cell Number, × 10^3","[2]; cytotoxic drug 10^-7 mol/L (100 nM), working solutions in medium with 5% FBS, listed as mitoxantrone",19.2 ± 1.16 × 10^3
same,"Cell Growth Inhibition, %",[2]; [4],39.1 * %
same,"Tumor Cell Number, × 10^3",[2]; [4],35.0 ± 1.70 × 10^3
same,"Tumor Cell Number, × 10^3","[2]; cytotoxic drug 10^-9 mol/L, working solutions in medium with 5% FBS",46.5 ± 2.32 × 10^3
"CC1=C(/C=C/C(C)=C/C=C/C(C)=C/C(=O)N[C@@H](CS(=O)(=O)O)C(=O)O)C(C)(C)CCC1 [compound I-1, N-(all-trans-Retinoyl)-L-cysteic acid]",inhibition at 0.1 µM,[1]; [5],41.5%
same,inhibition at 0.1 µM,[1]; [6],31.3%
same,inhibition at 0.1 µM,[1]; [7],14.8%
same,inhibition at 0.01 µM,[1]; [8],40.2%
same,inhibition at 0.01 µM,[1]; [9],29.7%
same,inhibition at 0.01 µM,[1]; [10],15%
same,inhibition at 0.001 µM,[1]; [11],36.9%
same,inhibition at 0.001 µM,[1]; [12],24.8%
same,inhibition at 0.001 µM,[1]; [13],16.1%
same,number of viable cells,[1]; [14],39.1 ± 1.41 × 10^3
same,number of viable cells,[1]; [15],40.0 ± 1.35 × 10^3
same,number of viable cells,[1]; [16],42.8 ± 1.56 × 10^3
same,"cell growth inhibition reached on increase of the concentration, in (B)",[1]; [17],~31%
same,minimal lethal dose,[3],above 100 mg/kg body weight
"COC(=O)[C@H](CS(=O)(=O)O)NC(=O)/C=C(C)/C=C/C=C(C)/C=C/C1=C(C)CCCC1(C)C [compound I-1a, N-(all-trans-retinoyl)-L-cysteic acid methyl ester]",inhibition at 0.1 µM,[1]; [18],47.9%
same,inhibition at 0.01 µM,[1]; [19],45.6%
same,inhibition at 0.001 µM,[1]; [20],40%
same,number of viable cells,[1]; [21],29.8 ± 2.44 × 10^3
same,number of viable cells,[1]; [22],31.1 ± 1.90 × 10^3
same,number of viable cells,[1]; [23],34.3 ± 2.27 × 10^3
same,minimal lethal dose,[3],above 100 mg/kg body weight
same,mortality,[3],did not produce mortality
"CC1=C(/C=C/C(C)=C/C=C/C(C)=C/C(=O)N[C@@H](CS(=O)(=O)O)C(N)=O)C(C)(C)CCC1 [compound I-1f, N-(all-trans-retinoyl)-L-cysteic acid amide]",inhibition at 0.1 µM,[1]; [18],52.5%
same,inhibition at 0.01 µM,[1]; [19],48.6%
same,inhibition at 0.001 µM,[1]; [20],44.8%
same,inhibition at 0.1 µM,[1]; [5],53.3%
same,inhibition at 0.1 µM,[1]; [6],44.9%
same,inhibition at 0.1 µM,[1]; [7],15.2%
same,inhibition at 0.01 µM,[1]; [8],46.3%
same,inhibition at 0.01 µM,[1]; [9],36.1%
same,inhibition at 0.01 µM,[1]; [10],16.1%
same,inhibition at 0.001 µM,[1]; [11],38.6%
same,inhibition at 0.001 µM,[1]; [12],25.8%
same,inhibition at 0.001 µM,[1]; [13],17.1%
same,number of viable cells,[1]; [14],31.6 ± 0.89 × 10^3
same,number of viable cells,[1]; [15],36.7 ± 0.75 × 10^3
same,number of viable cells,[1]; [16],42.6 ± 0.80 × 10^3
same,number of viable cells,[1]; [21],25.3 ± 1.11 × 10^3
same,number of viable cells,[1]; [22],27.4 ± 1.42 × 10^3
same,number of viable cells,[1]; [23],29.4 ± 2.15 × 10^3
same,cell growth inhibition in (A) compared to compound in B,[1]; [17],~15%
same,"cell growth inhibition reached on increase of the concentration, in (B)",[1]; [17],~45%
same,minimal lethal dose,[3],above 100 mg/kg body weight
same,mortality,[3],did not produce mortality
"CC1=C(/C=C/C(C)=C/C=C/C(C)=C\C(=O)N[C@@H](CS(=O)(=O)O)C(=O)OC(C)C)C(C)(C)CCC1 [compound II-1c, N-(13-cis-retinoyl)-L-cysteic acid isopropyl ester]",inhibition at 0.1 µM,[1]; [18],50.4%
same,inhibition at 0.01 µM,[1]; [19],47%
same,inhibition at 0.001 µM,[1]; [20],42.6%
same,number of viable cells,[1]; [23],33.6 ± 2.75 × 10^3
"CCCOC(=O)[C@H](CS(=O)(=O)O)NC(=O)\C=C(C)/C=C/C=C(C)/C=C/C1=C(C)CCCC1(C)C [compound II-1d, N-(13-cis-retinoyl)-L-cysteic acid propyl ester]",inhibition at 0.1 µM,[1]; [18],53.7%
same,inhibition at 0.01 µM,[1]; [19],50.4%
same,inhibition at 0.001 µM,[1]; [20],44.9%
same,number of viable cells,[1]; [21],26.3 ± 1.86 × 10^3
same,number of viable cells,[1]; [22],28.2 ± 1.29 × 10^3
same,number of viable cells,[1]; [23],31.3 ± 2.68 × 10^3
"CCCCOC(=O)[C@H](CS(=O)(=O)O)NC(=O)\C=C(C)/C=C/C=C(C)/C=C/C1=C(C)CCCC1(C)C [compound II-1e, N-(13-cis-retinoyl)-L-cysteic acid butyl ester]",inhibition at 0.01 µM,[1]; [19],50.7%
same,inhibition at 0.001 µM,[1]; [20],45.6%
same,number of viable cells,[1]; [23],30.9 ± 1.82 × 10^3
"CC1=C(/C=C/C(C)=C/C=C/C(C)=C\C(=O)N[C@@H](CCS(=O)(=O)O)C(=O)O)C(C)(C)CCC1 [compound II-3, N-(13-cis-Retinoyl)-L-homocysteic acid]",minimal lethal dose,[3],above 100 mg/kg body weight
